Some test systems named below: NCI-H226 lung; HT29 colon; HCT-15 colon; HCT-116 colon; UO-31 renal; SF-295 CNS; CAKI-1 renal; NCI/ADR-RES ovarian.
Common to all, as to test: NCI tumour cell line growth inhibition, 48 h

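All cell lines were grown in 96-well plates and treated with compound for 48 hours. GI50 is the concentration that inhibits growth by half. Definition used: TGI = concentration required for complete inhibition of growth.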 Some results are limits rather than exact numbers.

As for `NC(=O)[C@@H](CC1CC1)[C@@H](CCC(F)(F)F)C(=O)N[C@H]1N=C(c2ccccc2)c2cccc(F)c2NC1=O`, the GI50 in the assay with NCI-H226 lung was more than 100 µM; with HT29 colon, more than 100 µM; in the assay with HCT-15 colon, more than 100 µM; in the assay on HCT-116 colon it was more than 100 µM; with UO-31 renal it was 75.3 µM; in the assay with SF-295 CNS it was more than 100 µM. Moreover, the GI50 in the assay on CAKI-1 renal and with NCI/ADR-RES ovarian was more than 100 µM throughout. Further, the TGI with NCI-H226 lung, in the assay with HT29 colon, in the assay on HCT-15 colon, in the assay with HCT-116 colon, in the assay on UO-31 renal and in the assay on SF-295 CNS was more than 100 µM in each case. Also, the TGI with CAKI-1 renal and with NCI/ADR-RES ovarian was more than 100 µM each time.

For the compound `CN(C)CCNC(=O)c1ccc(-c2nc3ccc4[nH]ncc4c3c3c2C2CCC3C2)cc1` (configuration not stated), the GI50 in the assay on NCI-H226 lung was 1.28 µM; with HT29 colon, 1.84 µM; with HCT-15 colon it was 2.44 µM; in the assay with HCT-116 colon, 0.432 µM; with UO-31 renal, 2.03 µM; in the assay with SF-295 CNS, 2.01 µM. The GI50 in the assay with CAKI-1 renal is 0.93 µM; in the assay with NCI/ADR-RES ovarian it was 8.3 µM. Further, the TGI in the assay on NCI-H226 lung was 5.43 µM; in the assay on HT29 colon it was 13 µM; with HCT-15 colon, 11.4 µM; in the assay on HCT-116 colon it was 9.13 µM; with UO-31 renal it was 5.18 µM; with SF-295 CNS it was 5.39 µM. The TGI in the assay on CAKI-1 renal turned out to be 5.25 µM; with NCI/ADR-RES ovarian, 26.8 µM.

For the compound `Oc1c(Cl)cc(Cl)c2ccc(Cn3cc(-c4cc(C(F)(F)F)cc(C(F)(F)F)c4)nn3)nc12`, the GI50 in the assay on NCI-H226 lung is 4.93 µM; with HT29 colon it was 2.04 µM; in the assay on HCT-15 colon, 1.58 µM; in the assay with HCT-116 colon, 0.481 µM; in the assay on UO-31 renal, 1.6 µM; with SF-295 CNS, 17 µM. The GI50 in the assay on CAKI-1 renal is 1.16 µM; in the assay with NCI/ADR-RES ovarian it was 22.1 µM. For the same compound, the TGI in the assay with NCI-H226 lung worked out at 21 µM; in the assay with HT29 colon it was 5.1 µM; in the assay with HCT-15 colon, 3.55 µM; with HCT-116 colon, 1.76 µM; in the assay on UO-31 renal, 5.51 µM; with SF-295 CNS, 31 µM. Moreover, the TGI amounted to 2.53 µM in the assay with CAKI-1 renal and 71.6 µM with NCI/ADR-RES ovarian.

`CSc1ncc(Br)c(Sc2nc(N)nc3nc[nH]c23)n1`: the GI50 in the assay with NCI-H226 lung was 2.65 µM; in the assay on HT29 colon, 4.09 µM; in the assay with HCT-15 colon it was 3.18 µM; in the assay on HCT-116 colon, 4.2 µM; in the assay with UO-31 renal it was 1.94 µM; with SF-295 CNS, 1.15 µM. The values for the GI50 with CAKI-1 renal and with NCI/ADR-RES ovarian were 1.84 µM and 3.64 µM, respectively. Also, the TGI was 29.5 µM with NCI-H226 lung; 60.5 µM in the assay on HT29 colon; 50.8 µM in the assay with HCT-15 colon; more than 100 µM in the assay with HCT-116 colon; 11.2 µM with UO-31 renal; more than 100 µM with SF-295 CNS. Moreover, the TGI with CAKI-1 renal is 34.1 µM; with NCI/ADR-RES ovarian, more than 100 µM.

For the compound `COC(=O)C12CC(NC(=O)c3csc([C@@H](C[C@H](C(C)C)N(C)C(=O)[C@@H](NC(=O)[C@H]4CCCCN4C)C4CC4)OC(C)=O)n3)(C1)C2`, the GI50 with NCI-H226 lung was 0.582 µM; in the assay with HT29 colon, 0.0134 µM; in the assay with HCT-15 colon, 0.112 µM; with HCT-116 colon, 0.0228 µM; in the assay on UO-31 renal, 0.614 µM; with SF-295 CNS, 0.0422 µM. For the same compound, the GI50 in the assay on NCI/ADR-RES ovarian was 4.69 µM. The TGI in the assay on NCI-H226 lung, in the assay on HT29 colon, in the assay with HCT-15 colon, in the assay with HCT-116 colon, in the assay with UO-31 renal and with SF-295 CNS was more than 16.7 µM in each case. The compound also gave a TGI with NCI/ADR-RES ovarian of more than 16.7 µM.

Consider `C[Si](C)(c1ccc(C(=O)O)cc1)c1ccc(C(=O)O)cc1`, for which the TGI in the assay on NCI-H226 lung, in the assay with HT29 colon, in the assay with HCT-15 colon, with HCT-116 colon, with SF-295 CNS and in the assay with CAKI-1 renal was more than 100 µM in each case. In addition, the TGI in the assay on NCI/ADR-RES ovarian is more than 100 µM.

For `CCc1ccccc1NC(=O)/C=C/c1ccccc1`, the TGI in the assay with NCI-H226 lung, with HT29 colon, in the assay on HCT-15 colon, in the assay with HCT-116 colon, with SF-295 CNS and in the assay on CAKI-1 renal was more than 100 µM in each case.

With `CN1CCN(CCOc2ccc(-c3cnc4c(-c5cccc(F)c5)cnn4c3)cc2)CC1`, the GI50 in the assay on HT29 colon is 1.51 µM; in the assay on HCT-15 colon, 1.52 µM; in the assay with HCT-116 colon, 1.79 µM; with UO-31 renal it was 1.47 µM; in the assay with SF-295 CNS it was 1.71 µM; in the assay on CAKI-1 renal, 1.61 µM. In addition, in the assay with NCI/ADR-RES ovarian, the GI50 is 2.47 µM. Besides, the TGI worked out at 3.32 µM in the assay on HT29 colon; 2.92 µM in the assay on HCT-15 colon; 3.51 µM in the assay on HCT-116 colon; 3.37 µM in the assay with UO-31 renal; 3.27 µM with SF-295 CNS; 3.12 µM in the assay with CAKI-1 renal. In addition, the TGI in the assay on NCI/ADR-RES ovarian came to 6.14 µM.

With `CCOC(=O)c1c(C)n(Cc2ccc(Cl)cc2Cl)c2c1cc1oc(=O)c(=O)n3cnc2c13`, the GI50 in the assay on NCI-H226 lung is 19.7 µM; in the assay with HT29 colon it was 11 µM; with HCT-15 colon it was 13.7 µM; in the assay on HCT-116 colon, 18.6 µM; in the assay with UO-31 renal, 16.1 µM; with SF-295 CNS, 21.1 µM. Moreover, the GI50 with CAKI-1 renal was 17 µM. For the same compound, the TGI worked out at 39.5 µM in the assay on NCI-H226 lung; 37.8 µM in the assay on HT29 colon; 27.3 µM with HCT-15 colon; 36 µM with HCT-116 colon; 31.8 µM in the assay on UO-31 renal; 43.1 µM with SF-295 CNS. This compound showed a TGI in the assay on CAKI-1 renal of 32.3 µM.

On to `O=[N+]([O-])c1cccc(-c2nc(-c3ccccc3)c(-c3ccccc3)[nH]2)c1`, for which the TGI in the assay with NCI-H226 lung, with HCT-116 colon, with UO-31 renal, with SF-295 CNS, with CAKI-1 renal and in the assay on NCI/ADR-RES ovarian was more than 100 µM throughout.

As for `COc1ccc(Nc2nc3ccccc3c3occc23)cc1`, the GI50 with HCT-15 colon is 2.95 µM; with HCT-116 colon, 6.9 µM; with UO-31 renal, 12.3 µM; in the assay on SF-295 CNS, 6.64 µM; in the assay on CAKI-1 renal, more than 50 µM; in the assay with NCI/ADR-RES ovarian, 9.32 µM. For the same compound, the TGI was 10.7 µM in the assay on HCT-15 colon; 13.4 µM in the assay with HCT-116 colon; more than 50 µM in the assay with UO-31 renal; 13.2 µM with SF-295 CNS; more than 50 µM in the assay on CAKI-1 renal; 18.7 µM in the assay with NCI/ADR-RES ovarian.
